The text below walks through data of patent publication US12551472B2, “Compositions and methods using trigonelline to produce intracellular nicotinamide adenine dinucleotide (NAD+) for treating or preventing physiological disorders or states” (SOCIETE DES PRODUITS NESTLE S.A., priority 2019, dated 2026).

Each structure is given as a SMILES string.

Assay [1] concerns Human Skeletal Muscle Myotubes (HSMM). In words: Colorimetric NAD+ quantification in differentiated human primary myoblasts. The format is cell-based. The settings on record: 16 h, different doses (FIG. 4). The method, then:
After one day, the differentiation is induced by a medium change for 4 days. Cells were treated with synthetic trigonelline monohydrate (FIG. 4A) or with Fenugreek seed extract enriched in trigonelline containing 40.45% trigonelline (FIG. 4B) for 16 h at difference doses. NAD^+ was measured using colorimetric NAD^+ quantification assay (Biovision NAD^+/NADH Quantitation Colorimetric Kit #k337-100).

For the next assay, the system named is C57BL/6JRj male mice. In words: Enzymatic NAD+ measurement in mouse liver after oral gavage. Conditions: equimolar of 300 mg/kg trigonelline, 120 minutes (FIG. 5). The format is in vivo. As for the experimental part:
10 weeks C57BL/6JRj male mice received trigonelline (sigma #T5509) or fenugreek seed extract enriched in trigonelline (40.45% trigonelline) by oral gavage (equimolar of 300 mg/kg trigonelline, n=8/group). After 120 minutes treatment, the liver was harvested and flash frozen in liquid nitrogen. NAD^+ was measured in liver using an enzymatic method adapted from Dall, M., et al., Mol Cell Endocrinol, 2018. 473: p. 245-256.

Assay [2] concerns C. elegans. The settings on record: 1 mM, chronic exposure from Day 1 adulthood, wild type N2 (FIG. 7A). As for the experimental part:
Worm lifespan tests were performed using about 100 animals per condition and scored manually every other day. Trigonelline treatment and experimental measurements were started at Day 1 of wild type N2 worm adulthood, in a regimen of chronic exposure till experiments termination.

For assay [3], the system named is C. elegans. The method, then:
C. elegans mobility test was performed using the Movement Tracker software (Mouchiroud, L. et al. Curr Protoc Neurosci 77, 8.37.1-8.37.21 (2016)). The experiments were repeated at least twice. Trigonelline treatment and experimental measurements were started at Day 1 of wild type N2 worm adulthood, in a regimen of chronic exposure till experiments termination.

Assay [4] has as its system C. elegans. The settings on record: 1 mM, day 8 and day 11 old worms, vs control (FIG. 7D). The source says:
45 to 60 worms per condition were manually scored for mobility after poking. Worms that were unable to respond to any repeated stimulation were scored as dead. […] Trigonelline treatment and experimental measurements were started at Day 1 of wild type N2 worm adulthood, in a regimen of chronic exposure til experiments termination.

The test system of assay [5] is Human Skeletal Muscle Myotubes (HSMM). Conditions: 500 μM, 6 h, relative to control, LC-MS (FIG. 2A). The method, then:
Human primary myoblasts from two different donors were seeded in 6 well plates at a density of 200′000 cells per well in skeletal muscle growth medium (SKM-M, AMSbio). After one day, the differentiation was induced by a medium change for 4 days using differentiation culture medium (Gibco No. 31330-028). Cells were treated with isotopically labelled trigonelline (^13C carbonyl; 3^2H on methyl) for 6 h.
Cell extracts were separated on a Vanquish UHPLC+focused LC system (Thermo Scientific) with a hydrophilic liquid chromatography (HILIC) iHILIC-Fusion(P) column (Hilicon) carrying the dimensions 150×2.1 mm, 5 μm and a guard column (iHILIC-fusion(P), Hilicon) in front. The separation of metabolites was achieved by applying a linear solvent gradient in normal phase at 0.25 mL/min flow rate and 35° C. of temperature.
The eluting metabolites were analyzed with an Orbitrap Fusion Lumos mass spectrometer (Thermo Scientific) with a heated electrospray ionization (H-ESI) source in positive and negative mode at a resolution of 60,000 at m/z of 200. Instrument control and data analysis were conducted using Xcalibur (Thermo Scientific).

For assay [6], the system named is RW1596 (myo-3p::GFP) worms. The settings on record: 1 mM trigonelline chloride, 11 day old worms vs age matched control. As for the experimental part:
RW1596 (myo-3p::GFP) worms were collected at Day 1 (young adults) and at Day 11 (aged animals) for muscle integrity assessment. Worms were immobilized with tetramisole and analyzed by confocal microscopy, to assess the muscle fibers morphology shown by GFP fluorescence imaging. Trigonelline treatment with 1 mM trigonelline chloride and experimental measurements were started at Day 1 of wild type N2 worm adulthood, in a regimen of chronic exposure till experiments termination.

In assay [7] the test system is C. elegans. The settings on record: 1 mM trigonelline chloride, day 8 old worms, vs control (FIG. 8). The method, then: Absolute quantification of the mtDNA copy number in wild type N2 worms was performed by real-time PCR. Relative values for nduo-1, and act-1 were compared within each sample to generate a ratio representing the relative level of mitochondrial DNA per nuclear genome. The average of at least two technical repeats was used for each biological data point. Each experiment was performed on at least ten independent biological samples (individual worms). Trigonelline treatment with 1 mM trigonelline chloride and experimental measurements were started at Day 1 of wild type N2 worm adulthood, in a regimen of chronic exposure till experiments termination.

For the molecule `C[n+]1cccc(C(=O)O)c1.[OH-]` [chemically synthesized trigonelline], in assay [1], the “NAD+ content compared to the control” value is on record as “significant increase”. The “NAD+ content in the liver compared to the control” value in the assay with C57BL/6JRj male mice is on record as “significant increase”.

In the case of `C[n+]1cccc(C(=O)O)c1` [trigonelline chloride], the Increase in lifespan with C. elegans [2] amounted to 21%. For the same molecule, in the assay with C. elegans [3] (1 mM (FIG. 7C)), the “Distance travelled in advanced aging phase compared to control” value is recorded as “significantly increased”. In addition, in the assay on C. elegans [3] (1 mM, from day 1 adulthood (FIG. 7B)), the “Mean speed compared to the control” value is on record as “increased”. The “Stimulated mobility score (worms responsive to a physical stimulus)” value with C. elegans [4] is listed as “more responsive”.

In the case of `C[n+]1cccc(C(=O)[O-])c1` [trigonelline, 1-methylpyridin-1-ium-3-carboxylate], in assay [5], the “NAD+ levels” value was “enhancement”. In addition, in assay [6], the “Myofibrillar structure (GFP-tagged myosin)” value is recorded as “improved more organized myofibrillar structure”. Further, the “Mitochondrial expression relative to nuclear expression (nduo-1/act-1, mt/nDNA)” value in the assay with C. elegans [7] was “higher”.
